Experimental data taken from patent US20230303599A1, “PRODRUGS OF PHOSPHONAMIDE NUCLEOTIDE ANALOGUES AND THEIR PHARMACEUTICAL USE” (priority 2020, published 2023).
≈ marks a conversion by molar mass, not a printed value.

Columns and labels:
[1] = test system: HBV; experiment: Antiviral (HBV) assay in primary human hepatocytes (PHHs); format: cell-based; conditions: Hepatitis B virus, Hepatocyte, 120 h; HBV (GTD) infected PHH, 5 days, HBV DNA in supernatant; average of at least two independent experiments
Procedure: Example 106: Antiviral (HBV) Assay in Primary Human Hepatocytes (PHHs)
Cryopreserved PHH were thawed, recovered by centrifugation at 100 g in cryopreserved hepatocyte recovery medium (Thermo Fisher Scientific; CM7500), and plated on collagen matrix (Life Technologies; Catalog Number: R-011-K) coated T225 flasks (Corning CellBIND, Catalog Number: 3293) at a density of 25E6 live cells in 60 mls media. Cells were plated in William's E medium (Thermo Fisher Scientific; A1217601) supplemented with 3.6% hepatocyte thawing and plating supplement (Thermo Fisher Scientific, A15563), 5% fetal bovine serum (Thermo Fisher Scientific; 16000-036), 1 μM dexamethasone (Thermo Fisher Scientific, A15563), and 0.2% Torpedo antibiotic mix (Bioreclamation; Z990008). The plating medium was removed after 14 hours and the cells were subsequently cultured in maintenance medium: William's E medium supplemented with 4% hepatocyte maintenance supplement (Thermo Fisher Scientific; AI15564), 2% fetal bovine serum, 0.1μ M dexamethasone, 1.5% DMSO (Sigma-Aldrich, St. Louis, MO; D8418), and 0.2% Torpedo antibiotic mix. Approximately 24 hours after plating, PHH were infected with HepAD38-derived GTD virus at 500 viral genome equivalents per cell in PHH maintenance medium supplemented with 4% PEG 8000 (Promega, Madison, WI; V3011). Infections were allowed to proceed for 24 hours before removing the remaining extracellular virions by washing with maintenance medium three times. After allowing viral infection to take place for 3 days, the infected cells were harvested from the flasks by trypsinization (0.25X in PBS without Ca/Mg, 25 minutes) following a 4 minute 0.5X Versene (Life Technologies Catalog Number: 15040-066) treatment and two PBS washes. Trypsinized cells were inactivated in 10% FBS containing maintenance medium, centrifuged 6 minutes at 50 g, resuspended in hepatocyte maintenance medium, filtered through a 40 uM cell strainer, and adjusted to a density of 0.25E6 cells/ml. Infected cells were seeded on 384 well collagen coated plates (Greiner, Austria) at a density of 20,000 cells/well containing serially diluted compounds of the present disclosure or DMSO (0.5%) in a final volume of 80 μl. The assay plates were incubated for a period of 5 days and the antiviral activity of the test compounds were assayed by detecting the presence of HBV DNA in the culture supernatant using the QuantiGene™ 2.0 nucleic acid quantification kit (Affymetrix, Santa Clara, CA).

[2] = Kinetic solubility analysis; format: physicochemical; conditions: 1× PBS, 24.2 °C, aqueous buffer, kinetic from dmso stock; pH 7.4 PBS, 1% DMSO, 24-hour incubation at ambient temperature
Method in brief: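 Compounds from 10 mM DMSO stocks were incubated in 0.1 N HCl or 1× PBS pH 7.4 (1.0% DMSO, 100 μM maximum theoretical) for 24 h at 24.2-27.5 °C, then vacuum filtered. Filtrates were quantified in μM by chemiluminescent nitrogen detection against a calibration curve, corrected for background nitrogen; values for adjacent ring-nitrogen compounds were raised ~25%.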

[3] = Cytotoxicity assay in MT-4 cells; format: cell-based; conditions: human, uninfected MT-4 cells, average of at least two independent experiments, read-out: MT4 CC50
Procedure: Compounds were tested in a high-throughput 384-well assay format for their ability to inhibit the replication of HIV-1 (IIIB) in MT-4 cells. Compounds were serially diluted (1:3) in DMSO on 384-well polypropylene plates and further diluted 200-fold into complete RPMI media (10% FBS, 1% P/S) using the Biotek Micro Flow and Labcyte ECHO acoustic dispenser. Each plate contained up to 8 test compounds, with negative (no drug) and positive (5 μM AZT) controls. MT-4 cells were pre-treated with 10 μL of either RPMI (mock-infected) or a fresh 1:250 dilution of HIV-1 IIIB concentrated virus stock. Infected and uninfected MT-4 cells were further diluted in complete RPMI media and added to each plate using a Micro Flow dispenser. After 5 days incubation in a humidified and temperature-controlled incubator (37° C.), Cell Titer Glo (Promega) was added to the assay plates and chemiluminescence read using an Envision plate-reader. EC50 values were defined as the compound concentration that causes a 50% decrease in luminescence signal and were calculated using a sigmoidal dose-response model to generate curve fits and are shown in Table 1.
Example 105: Cytotoxicity Assay in MT-4 Cells
Assays were performed as described in Example 104 except uninfected MT-4 cells were added to each well containing test compound. In addition, 10 μM puromycin was added to the last column of each assay plate to assess a base level of cytotoxicity.

[4] = Cytotoxicity assay in primary human hepatocytes (PHHs); format: cell-based; conditions: HBV-infected primary human hepatocytes, HBV-infected PHH, Cell Titer Glo, average of at least two independent experiments
Procedure: Example 107: Cytotoxicity Assay in Primary Human Hepatocytes (PHHs)
The HBV-infected primary human hepatocytes are seeded (20K cells/well in 80 uL of Media) in 384well collagen coated plates pre-spotted with compounds. After 5 days, 40 ul of cell supernatant is removed to quantify HBV DNA levels as described in Example 106. Then, 40 ul Cell Titer Glo Reagent (Promega Catalog Number: G7572) is added to the remaining cells and luminescence is measured on the EnVision microplate reader.

SMILES | EC50 [1] [nM] | solubility kinetic at 24 h [2] [µg/mL] | CC50 at 5 days [3] [nM] | CC50 at 5 days [4] [nM]
C[C@H](Cn1cnc2c(N)ncnc21)OCP(=O)(NC(C)(C)C(=O)OC1CC2(CCCCC2)C1)NC(C)(C)C(=O)OC1CC2(CCCCC2)C1 (stereo partly drawn) [Example 86, Di(spiro[3.5]nonan-2-yl) 2,2′-(((((1-(6-amino-9H-purin-9-yl)propan-2-yl)oxy)methyl)phosphoryl)bis(azanediyl))(R)-bis(2-methylpropanoate)] | 3.16 | 2 (≈ 2.85 µM) | 3730 | > 100
C[C@H](Cn1cnc2c(N)ncnc21)OCP(=O)(NC(C)(C)C(=O)O[C@H]1C[C@H](C(C)(C)C)C1)NC(C)(C)C(=O)O[C@H]1C[C@H](C(C)(C)C)C1 [Example 52, Bis((1R,3R)-3-(tert-butyl)cyclobutyl) 2,2′-((((((R)-1-(6-amino-9H-purin-9-yl)propan-2-yl)oxy)methyl)phosphoryl)bis(azanediyl))bis(2-methylpropanoate)] | 14.4 | < 1 | 7190 | > 100
C[C@H](Cn1cnc2c(N)ncnc21)OCP(=O)(NC(C)(C)C(=O)OCCC1CCCCC1)NC(C)(C)C(=O)OCCC1CCCCC1 [Example 14, Bis(2-cyclohexylethyl) 2,2′-(((((1-(6-amino-9H-purin-9-yl)propan-2-yl)oxy)methyl)phosphoryl)bis(azanediyl))(R)-bis(2-methylpropanoate)] | 2.57 | 27 (≈ 39.8 µM) | 3190 | > 100
C[C@H](Cn1cnc2c(N)ncnc21)OCP(=O)(NC(C)(C)C(=O)OCC1CC2(C1)CC(F)(F)C2)NC(C)(C)C(=O)OCC1CC2(C1)CC(F)(F)C2 [Example 58, Bis((6,6-difluorospiro[3.3]heptan-2-yl)methyl) 2,2′-(((((1-(6-amino-9H-purin-9-yl)propan-2-yl)oxy)methyl)phosphoryl)bis(azanediyl))(R)-bis(2-methylpropanoate)] | 1.26 | 51 (≈ 68.4 µM) | 3680 | > 100
C[C@H](Cn1cnc2c(N)ncnc21)OCP(=O)(NC(C)(C)C(=O)O[C@@H](C)C1CCCCC1)NC(C)(C)C(=O)O[C@@H](C)C1CCCCC1 [Example 56, Bis((S)-1-cyclohexylethyl) 2,2′-((((((R)-1-(6-amino-9H-purin-9-yl)propan-2-yl)oxy)methyl)phosphoryl)bis(azanediyl))bis(2-methylpropanoate)] | 3.99 | 5 (≈ 7.38 µM) | 9650 | > 100
C[C@H](Cn1cnc2c(N)ncnc21)OCP(=O)(NC(C)(C)C(=O)OCC1CC2(CCC2)C1)NC(C)(C)C(=O)OCC1CC2(CCC2)C1 (stereo partly drawn) [Example 50, Bis(spiro[3.3]heptan-2-ylmethyl) 2,2′-(((((1-(6-amino-9H-purin-9-yl)propan-2-yl)oxy)methyl)phosphoryl)bis(azanediyl))(R)-bis(2-methylpropanoate)] | 3.1 | < 1 | 8060 | > 100
CCCCCCOC(=O)C(C)(C)NP(=O)(CO[C@H](C)Cn1cnc2c(=N)n(Cc3oc(=O)oc3C)cnc21)NC(C)(C)C(=O)OCCCCCC [Example 83, Dihexyl 2,2′-(((((1-(6-imino-1-((5-methyl-2-oxo-1,3-dioxol-4-yl)methyl)-1,6-dihydro-9H-purin-9-yl)propan-2-yl)oxy)methyl)phosphoryl)bis(azanediyl))(R)-bis(2-methylpropanoate)] | 2.14 | 33 (≈ 44.7 µM) | 6600 | > 100
CCCCCCOC(=O)C(C)(C)NP(=O)(CO[C@H](C)Cn1cnc2/c(=N\Cc3oc(=O)oc3C)n(Cc3oc(=O)oc3C)cnc21)NC(C)(C)C(=O)OCCCCCC [Example 84, Dihexyl 2,2′-(((((1-(1-((5-methyl-2-oxo-1,3-dioxol-4-yl)methyl)-6-(((5-methyl-2-oxo-1,3-dioxol-4-yl)methyl)imino)-1,6-dihydro-9H-purin-9-yl)propan-2-yl)oxy)methyl)phosphoryl)bis(azanediyl))(R,E)-bis(2-methylpropanoate)] | 3.37 | 8 (≈ 9.41 µM) | 10600 | > 100
C[C@H](Cn1cnc2c(N)ncnc21)OCP(=O)(NC(C)(C)C(=O)OC[C@H]1CC[C@H](C)CC1)NC(C)(C)C(=O)OC[C@H]1CC[C@H](C)CC1 [Example 91, Bis((trans-4-methylcyclohexyl)methyl) 2,2′-((((((R)-1-(6-amino-9H-purin-9-yl)propan-2-yl)oxy)methyl)phosphoryl)bis(azanediyl))bis(2-methylpropanoate)] | 3.76 | – | 4920 | > 100
C[C@H](Cn1cnc2c(N)ncnc21)OCP(=O)(NC(C)(C)C(=O)OCC12CC3CC(CC(C3)C1)C2)NC(C)(C)C(=O)OCC12CC3CC(CC(C3)C1)C2 [Example 59, Bis(((1S,3S)-adamantan-1-yl)methyl) 2,2′-((((((R)-1-(6-amino-9H-purin-9-yl)propan-2-yl)oxy)methyl)phosphoryl)bis(azanediyl))bis(2-methylpropanoate)] | 6.53 | < 1 | 6960 | > 100
C[C@H](Cn1cnc2c(N)ncnc21)OCP(=O)(NC(C)(C)C(=O)OCC12CCC(CC1)CC2)NC(C)(C)C(=O)OCC12CCC(CC1)CC2 [Example 48, Bis(bicyclo[2.2.2]octan-1-ylmethyl) 2,2′-(((((1-(6-amino-9H-purin-9-yl)propan-2-yl)oxy)methyl)phosphoryl)bis(azanediyl))(R)-bis(2-methylpropanoate)] | 4.63 | < 1 | 3340 | > 100
C[C@H](Cn1cnc2c(N)ncnc21)OCP(=O)(NC(C)(C)C(=O)OCC1CCCCCC1)NC(C)(C)C(=O)OCC1CCCCCC1 [Example 89, Bis(cycloheptylmethyl) 2,2′-(((((1-(6-amino-9H-purin-9-yl)propan-2-yl)oxy)methyl)phosphoryl)bis(azanediyl))(R)-bis(2-methylpropanoate)] | 2.42 | – | 5100 | > 100
CCCCCCCCOC(=O)C(C)(C)NP(=O)(CO[C@H](C)Cn1cnc2c(N)ncnc21)NC(C)(C)C(=O)OCCCCCCCC [Example 39, Dioctyl 2,2′-(((((1-(6-amino-9H-purin-9-yl)propan-2-yl)oxy)methyl)phosphoryl)bis(azanediyl))(R)-bis(2-methylpropanoate)] | 4.5 | – | 7270 | > 100
